Laboratory results from paper PMC2888647 (Journal of medicinal chemistry, 2009).

Experiments:
[1] = estimated; cited from earlier work
recombinant human sEH = biological target: T1, recombinant human sEH (Homo sapiens, UniProt P34913); type: biochemical; conditions: relative to compound 1
T1 sequence (P34913 1-555): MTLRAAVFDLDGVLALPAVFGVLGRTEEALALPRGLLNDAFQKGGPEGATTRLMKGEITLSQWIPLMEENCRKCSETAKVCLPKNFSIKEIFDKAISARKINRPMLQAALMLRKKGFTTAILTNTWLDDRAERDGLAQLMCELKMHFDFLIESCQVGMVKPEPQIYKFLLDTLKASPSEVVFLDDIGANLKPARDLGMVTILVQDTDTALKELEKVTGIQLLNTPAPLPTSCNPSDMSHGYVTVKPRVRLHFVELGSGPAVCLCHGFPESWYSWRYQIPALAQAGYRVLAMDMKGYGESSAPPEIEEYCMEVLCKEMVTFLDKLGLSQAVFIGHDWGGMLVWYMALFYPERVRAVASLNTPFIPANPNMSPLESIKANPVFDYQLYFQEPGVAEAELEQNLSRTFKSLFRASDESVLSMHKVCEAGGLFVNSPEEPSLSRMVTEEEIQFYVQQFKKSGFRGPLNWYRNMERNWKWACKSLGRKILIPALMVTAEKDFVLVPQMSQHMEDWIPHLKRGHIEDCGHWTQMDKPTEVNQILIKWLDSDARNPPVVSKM

SMILES | in vivo half-life [1] | decline of sEHi, factor with respect to 1 (recombinant human sEH)
CCCCC[C@@H]1O[C@@H]1C/C=C\C/C=C\C/C=C\CCCC(=O)O [14,15-EET, cis-14,15-epoxyeicosa-5(Z),8(Z),11(Z)-trienoic acid] | a few seconds to minutes | –
CCCCCNC(=S)NCCCC/C=C\CCCCCCC(=O)O [Compd 5, 13-(3-n-Pentylthioureido)tridec-8(Z)-enoic acid] | – | 16
